± gives the expanded uncertainty stated by the source.
What was measured:
[1] = 293.15 K; 101.33 kPa; Liquid
[2] = refractive index (Na D-line) (dimensionless); details: 293.15 K; 101.33 kPa; Liquid; Standard Abbe refractometry

Structure (SMILES) | mass density [1] [kg/m3] | refractive index [2]
O=Cc1ccco1 [2-furaldehyde] | 1128.5 ± 15 | –
CCCCCC [hexane] | 659.3 ± 5 | –
O [water] | – | 1.333 ± 0.0007
